Where two headings read alike, the source gives them in different places.
Experiments:
[1] = test system: B16F10 melanoma tumor cell line; assay: Cell death by AnnexinV/DAPI staining 48 hours after drug treatment; format: cell-based, mouse; conditions: 48 hours; for cell death by DAPI and Annexin V staining: at the concentrations used; for cytotoxicity at 10 µM / viability at 10 µM / cytotoxicity at 50 µM / viability at 50 µM: Mus musculus, B16-F10; for viability at 10 µM / viability at 50 µM: read-out: AnnV−DAPI− (%) Mean
Procedure: For assessment of cell death, floating and attached cells were harvested after 48 hours of treatment with the indicated chemotherapeutic drugs. Attached cells were detached using 5 mM EDTA in PBS. The recovered cells were centrifuged at 250×g for 5 minutes, washed once in PBS containing 0.9 mM Ca2+ and 0.5 mM Mg2+ and then stained with AnnV-FITC for 15 minutes in Annexin binding buffer at room temperature according to the manufacturer's protocol (Biolegend). Cells were co-stained with DAPI at a final concentration of 1 μg/ml for 2 minutes in Annexin binding buffer, brought to a final volume of 500 ul using PBS containing 0.9 mM Ca2^+ and 0.5 mM Mg2^+ and analyzed by flow cytometry.
To identify how DNA-damaging chemotherapy could be optimally used to enhance anti-tumor immune function, cytotoxicity assays were performed using the B16F10 melanoma tumor cell line expressing ovalbumin (B16-Ova). Cells were treated with clinically used chemotherapeutic agents followed by assaying for cell death by DAPI and Annexin V staining 48 hours later.

[2] = Cell viability (survival) assay with CellTiter-Glo, 48 hours; format: cell-based, mouse; conditions: mouse, B16F10 melanoma tumor cells, 48 hours, normalized to DMSO-treated control cells
Procedure: For assays of survival, 15,000 cells were plated per well in a 96-well plate in 100 μl media with 5 replicates per condition. Wells along the four edges of the plate were not used. Following cell attachment, the indicated drugs were added in an equal volume of media, and incubated for an additional 48 hours. The media was then removed and replaced with 100 ul of fresh media at room temperature. Following a 30 minute incubation at room temperature, 50 μl of CellTiter-Glo reagent was added, followed by 2 minutes of gentle mixing. The plate was incubated at room temperature for an additional 10 minutes. 100 μl of supernatant was transferred to a 96-well white opaque plate and luminescence was read on a Tecan microplate reader. Values were normalized to those of DMSO-treated control cells.

[3] = test system: B16-Ova cells; assay: In vitro cross presentation assay: drug-treated B16-Ova cells, BMDC and OT-1 CD8+ T-cells, IFN-γ+ T-cells by flow cytometry; format: cell-based, mouse; design: reduction of the percentage of IFNg+ T-cells by siRNA knockdown of calreticulin / reduction of T-cell IFN-γ responses / frequency of IFN-γ+ T-cells: concentration or dose not given beside the values; conditions: for inducing the appearance of IFNγ+OT-1 CD8+ T-cells: 50 μM etoposide or 10 μM mitoxantrone; for reduction of the percentage of IFNg+ T-cells by siRNA knockdown of calreticulin: compared to siRNA controls
Procedure: (§1) B16-Ova or MC-38 Ova cells were treated with various doses of chemotherapeutic drugs for 24 h followed by extensive washing in IMDM (10% FBS, P/S). Subsequently 1×10^6 treated cells were co-cultured with 2.5×10^5 BMDC per well of a 24-well plate for each condition tested. After 24 hours of co-culture, supernatants were removed from each well and the BMDC washed 2-3 times in T-cell media (RPMI containing 10% FBS, 20 mM HEPES, 1 mM sodium pyruvate, 55 uM b-mercaptoethanol, 2 mM L-glutamine, nonessential amino acids and antibiotics). CD8+OT-I T-cells isolated from spleens of OT-I mice were then co-cultured with the BMDC at 125,000 T-cells per well to achieve an effector to target ratio of 0.5. Where indicated, BMDC and/or T-cells were also exposed to chemotherapy drugs. After a 12-15 h incubation, IFN-g producing T-cells were identified and quantified by intra-cellular cytokine staining and flow cytometry using a BD LSR II or Fortessa flow cytometer. Cells were first gated for CD3 expression, then re-gated for CD8 and IFNg expression.
An experimental system was developed to assess dendritic cell-mediated T-cell priming using the B16-Ova cells, in combination with primary bone-marrow derived dendritic cells (BMDC) and OT-I CD8+ T-cells expressing a TCR transgene that specifically recognizes the Ova-derived peptide […] (SEQ ID NO:1) in the context of H2-Kb (OT-1) (Clarke, et al., Immunol Cell Biol., 78(2):110-7 (2000); Hogquist, et al., Cell, 76(1):17-27 (1994)). […] The treated B16-Ova cells/BMDC co-culture was then incubated with purified CD8+ T-cells obtained from the spleens of OT-1 mice, and the appearance of IFNg+CD8 T-cells was measured 12-15 hours later by intracellular staining and subsequent quantification using flow cytometry.

[4] = test system: MC-38-Ova cells; assay: In vitro cross presentation assay: drug-treated MC-38-Ova cells, BMDC and OT-1 CD8+ T-cells; format: cell-based, mouse
Procedure: as §1

[5] = test system: B16-Ova cells; assay: HMGB1 in cell culture media by ELISA; format: cell-based, mouse; conditions: for HMGB1 (ng/ml) MEAN: culture media 24-48 hours after treatment
Procedure: Cell-free cell culture media was then analyzed by ELISA for HMGB1 according to the manufacturer's protocol.

[6] = test system: B16-Ova cells; assay: Proportion of live and dead cells (AnnV/DAPI) after 24 h treatment with increasing doses; format: cell-based, mouse
Procedure: B16-Ova cells or MC-38-Ova cells were treated with various doses of chemotherapy as indicated in FIGS. 1F-1I for 24 hours after which the floating fraction of cells was transferred to a separate tube and washed with PBS (for AnnV/DAPI staining) or IMDM (for co-culture with BMDC). The attached fraction was rinsed 1× with PBS, detached using 5 mM EDTA (in PBS), washed with PBS or IMDM and transferred to a separate tube. Separately, cells treated with chemotherapy for 24 h were re-plated at 1 million cells per well of a 24-well plate in 500 ul of IMDM (10% FBS; P/S). Cell-free supernatants were collected after a further 24 h. […] Lysate of the total chemotherapy-treated cell mixture was generated by three rounds of freeze-thawing by alternate incubations in liquid nitrogen and a 37 C water bath.

[7] = test system: RIPK1; assay: Western blotting with anti phosphoRIPK1(S166) antibody; format: cell-based, mouse; conditions: B16-Ova cells
[8] = test system: p38MAPK; assay: Western blotting of cell lysates with anti-phospho-p38 antibody; format: cell-based, mouse; conditions: B16-Ova cells
[9] = test system: CT26 mouse colon cancer cells; conditions: previously reported; cited from earlier work
[10] = B16-Ova cells treated with 10 uM for 24 h
[11] = B16-Ova cells treated with 50 uM for 24 h
[12] = MC-38-Ova cells treated with 10 uM for 24 h
[13] = MC-38-Ova cells treated with 50 uM for 24 h

SMILES	cell death by DAPI and Annexin V staining [1]	cytotoxicity at 10 µM ([1]; read-out: AnnV+DAPI+ (%) Mean) [%]	cytotoxicity at 10 µM ([1]; read-out: AnnV+DAPI− (%) Mean) [%]	cytotoxicity at 10 µM ([1]; read-out: AnnV−DAPI+ (%) Mean) [%]	viability at 10 µM [1] [%]	cytotoxicity at 50 µM ([1]; read-out: AnnV+DAPI+ (%) Mean) [%]	cytotoxicity at 50 µM ([1]; read-out: AnnV+DAPI− (%) Mean) [%]	cytotoxicity at 50 µM ([1]; read-out: AnnV−DAPI+ (%) Mean) [%]	viability at 50 µM [1] [%]	viability at 48 h, 10 µM [2] [%]	viability at 48 h, 50 µM [2] [%]	inducing the appearance of IFNγ+OT-1 CD8+ T-cells [3]	% CD3+CD8+IFN-γ+ T-cells MEAN [3, 10] [%]	% CD3+CD8+IFN-γ+ T-cells MEAN [3, 11] [%]	reduction of the percentage of IFNg+ T-cells by siRNA knockdown of calreticulin [3] [%]	% CD3+CD8+IFN-γ+ T-cells MEAN [4, 12] [%]	% CD3+CD8+IFN-γ+ T-cells MEAN [4, 13] [%]	HMGB1 (ng/ml) MEAN ([5]; 10 uM) [ng/mL]	HMGB1 (ng/ml) MEAN ([5]; 50 uM) [ng/mL]	RIPK1 activation [7]	also measured
COc1cc([C@@H]2c3cc4c(cc3[C@@H](O[C@@H]3O[C@@H]5CO[C@@H](C)O[C@H]5[C@H](O)[C@H]3O)[C@H]3COC(=O)[C@H]23)OCO4)cc(OC)c1O [Etop, etoposide]	caused varying extents of apoptotic and non-apoptotic cell death	51	11.6	6.54	30.9	47.9	10.9	4.57	36.6	34.9	36.1	highly effective	0.86	4.80	~50	13.13	3.83	29.24	10.65	induce RIPK1 activation	% CD3+CD8+IFN-γ+ T-cells MEAN ([3]; Table 7 experiment, 50 uM alone): 4.11%; % CD3+CD8+IFN-γ+ T-cells MEAN ([3]; Table 10 experiment, Etop 50 uM alone): 22.90%; appearance of IFN-γ+ CD8+ T-cells ([3]; co-exposure of both BMDCs and tumor cells, compared to exposure of B16-Ova cells alone): significantly reduced the appearance of IFN-γ+ CD8+ T-cells; magnitude of IFN-γ responses in T-cells ([3]; increasing doses from 0 to 100 uM): corresponding increase in the magnitude of IFN-γ responses; % CD3+CD8+IFN-γ+ T-cells MEAN ([3]; siCalR (calreticulin knockdown) B16-Ova cells, 50 uM): 2.71%; % CD3+CD8+IFN-γ+ T-cells MEAN ([3]; siCtrl (control siRNA) B16-Ova cells, 50 uM): 5.25%; tumor-directed T-cells relative to the level when exposure is limited to the tumor cells alone ([3]; triple co-exposure of tumor cells, BMDCs and T-cells): less than 10%; inducing the appearance of IFNγ+OT-1 CD8+ T-cells ([4]; MC-38-Ova, etoposide 10 μM): the most effective treatment; HMGB1 release into the media ([5]; 24-48 hours post-treatment window): lowest levels of HMGB1 release; proportion of dead cells (AnnV or DAPI single or double positive) ([6]; 25 uM): ~30%; further increase of the proportion of dead cells ([6]; 100 uM): ~5%; proportion of dead cells (AnnV or DAPI single or double positive) ([6]; between 25 and 75 uM): ~30%; p38MAPK activation [8]: p38MAPK activation; immunogenic cell death / calreticulin exposure [9]: ineffective at inducing ER stress and calreticulin exposure
O=C1c2c(O)ccc(O)c2C(=O)c2c(NCCNCCO)ccc(NCCNCCO)c21 [Mito, mitoxantrone]	caused varying extents of apoptotic and non-apoptotic cell death	52.4	17.1	9.44	21.1	73.8	11.7	8.5	6.08	0.0743	0.000452	highly effective	5.57	0.44	~80	3.433	0.148	70.09	14.63	induce RIPK1 activation	IFN-γ responses in T-cells ([3]; 5 uM): maximum IFN-γ responses; IFN-γ responses in T-cells ([3]; 10 uM): lower IFN-γ response; IFN-γ responses in T-cells ([3]; 25 uM and higher doses): undetectable; % CD3+CD8+IFN-γ+ T-cells MEAN ([3]; Table 7 experiment, 10 uM alone): 3.98%; % CD3+CD8+IFN-γ+ T-cells MEAN ([3]; siCalR (calreticulin knockdown) B16-Ova cells, 10 uM): 1.10%; % CD3+CD8+IFN-γ+ T-cells MEAN ([3]; siCtrl (control siRNA) B16-Ova cells, 10 uM): 4.63%; dead cell proportion ([6]; 25 uM and higher doses): greater than 90%; dead cell proportion ([6]; between 5 and 10 uM): ~50%; p38MAPK activation [8]: p38MAPK activation; immunogenic cell death / calreticulin exposure [9]: promote strong immunogenic cell death

— US20210154281A1, “CELL-BASED CANCER VACCINES AND CANCER THERAPIES” (Massachusetts Institute of Technology, priority 2019, published 2021)
